Reference: patent US12089595B2, “Pseudomonas strains and their metabolites to control plant diseases” (T3 Bioscience, Inc., priority 2020, dated 2024)
Values after ≈ are worked out from the molar mass of the structure shown. “Also recorded” adds a separate entry of the source.

Key:
Ea = assay: Bioactive fractions tested against Ea; format: cell-based, Erwinia amylovora; conditions: crude extracts 100 μg/mL; flash-RejuAgro A 20 μg/mL; HPLC-RejuAgro A 10 μg/mL
Method: (§1) Two assays were used for the antimicrobial test of 0617-T307 cell broth and metabolites. One is plate diffusion assay and the other one is microplate assay. LB plate was used for the plate diffusion assay of the antimicrobial activity of RejuAgro A containing fractions and cell broths against E. amylovora (Table 3).
(§2) The bioactive fractions (crude extracts, 100 μg/mL; flash-RejuAgro A, 20 μg/mL; HPLC-RejuAgro A, 10 μg/mL) were tested against strains 0617-T307, Ea and Xac.

[1] = system: Fusarium oxysporum f. sp. Melonsis; assay: microbe, parasite or virus in culture; format: cell-based; conditions: 144 h
Solubility in solvents = format: physicochemical; conditions: methanol, chloroform
Method: Preparative HPLC (Prep-HPLC) purification of the fraction 3840 and 5054 lead to the discovery of 15 mg yellow colored compound RejuAgro A (Rt17.5) and 103.3 mg dark-green colored compound RejuAgro B, respectively. […] The structures of the two compounds have been investigated by High resolution mass spectrometry (HR-MS), infrared (IR), Ultraviolet (UV), 1D and 2D Nuclear magnetic resonance (NMR) as well as X-ray crystal structure analysis.

[2] = system: Liberibacter crescens BT-1; assay: microbe, parasite or virus in culture; format: cell-based
Septoria tritici = assay: microbe, parasite or virus in culture; format: cell-based; conditions: Zymoseptoria tritici, 144 h
[3] = system: Mycosphaerella fijiensis 10CR-25; assay: Antimicrobial effect in PDA agar medium (6-well plate); format: cell-based
Method: The antimicrobial effect of RejuAgro A on Mycosphaerella fijiensis was examined by adding final concentrations of 60 and 600 μg/mL of HPLC purified RejuAgro A respectively into the PDA agar medium. A 480 μL of 0.5 mg/mL or 5 mg/mL RejuAgro A was added into 3.52 mL of PDA in a well of a 6-well plate to make the final concentration of RejuAgro A at 60 (FIG. 12, middle well (panel A)) and 600 μg/mL (FIG. 12, left well (panel B)) respectively. The plate was gently shaken to let the compound dissolved.

[4] = system: Phytophthora infestans Pi 1306; assay: microbe, parasite or virus in culture; format: cell-based
[5] = system: Xanthomonas oryzae pv. oryzicola (Xon507); assay: microbe, parasite or virus in culture; format: cell-based; conditions: 44 h, read-out: Inhibition zone
Venturia inaequalis = assay: Antifungal assay on amended PDA plates; format: cell-based
Method: The fungus Venturia inaqualis that causes apple scab was maintained on PDA agar in the dark at room temperature (˜24° C.). A mixture of conidia and mycelia suspension (in 0.01 M PBS) was harvested from PDA (Potato dextrose agar). Ten μL the conidia and mycelia suspension were dropped onto biocontrol bacteria, RejuAgro A, or RejuAgro A amended plates. The control was PDA plates without the addition of the biocontrol bacteria or RejuAgro A or B. […]

[6] = system: Methicillin-resistant staphylococcus aureus USA300; assay: microbe, parasite or virus in culture; format: cell-based
P. infestans = assay: microbe, parasite or virus in culture; format: cell-based; conditions: Phytophthora infestans
[7] = system: the other soft pathogenetic bacteria (Pectobacterium, Dickeya dadantii); assay: MIC antimicrobial assay; format: cell-based
[8] = Stability of RejuAgro A in the culture (LCMS); format: physicochemical; conditions: room temperature; 40-h culture of 0617-T307 in YME; tested by LCMS
Method: RejuAgro A can be present and stable in the culture at room temperature for at least 4 weeks, as tested by LCMS for 40-h culture obtained by growing 0617-T307 in YME media on a shaker at 16° C. and 220 rpm.

Colletotrichum dematium = assay: microbe, parasite or virus in culture; format: cell-based; conditions: 144 h
[9] = system: X. arboricola pv. Juglandis Xaj219; assay: microbe, parasite or virus in culture; format: cell-based, Xanthomonas arboricola pv. Juglandis; conditions: Xanthomonas arboricola, read-out: Diameter of the zone of inhibition
[10] = system: Phytophthora infestans Pi 88069; assay: microbe, parasite or virus in culture; format: cell-based
[11] = system: Xanthomonas citri pv. citri citrange (XW19); assay: Paper disc inhibition zone on PSG agar plates; conditions: 44 h, read-out: Inhibition zone
Xac = assay: Bioactive fractions tested against Xac; format: cell-based, Xanthomonas axonopodis pv. citri; conditions: crude extracts 100 μg/mL; flash-RejuAgro A 20 μg/mL; HPLC-RejuAgro A 10 μg/mL
strain 0617-T307 = assay: Bioactive fractions tested against the producer strain; format: cell-based, Pseudomonas soli; conditions: crude extracts 100 μg/mL; flash-RejuAgro A 20 μg/mL; HPLC-RejuAgro A 10 μg/mL
Method: as §1, §2

Magnaporthe oryzae = assay: microbe, parasite or virus in culture; format: cell-based; conditions: Pyricularia oryzae, 144 h
E. amylovora Ea110 = assay: Field assay on apple trees in the orchard; format: in vivo, Erwinia amylovora; conditions: apple orchard 2019; bacteria at 5×10^8 CFU/mL; Ea110 5×10^6 CFU/mL; water control 32.9%
From the text: For the field assay, biological control bacteria (0617-T307, 0118-T319, 0318-T327, 0418-T328; see Table 2) that produce RejuAgro A were applied on the flowers of the apple trees in the orchard on May 5th and May 6th of 2019 (40% and 70% bloom of apple flowers) at the concentration of 5×10^8 CFU/mL. The bacterial pathogen E. amylovora Ea110 was inoculated on May 7th (90% bloom), at the concentration of 5×10^6 CFU/mL. […] Compared with streptomycin, the biocontrol bacteria that produce RejuAgro A have similar or better efficacy on controlling fire blight in the apple orchards.

[12] = system: Ralstonia solanacearum K60; assay: microbe, parasite or virus in culture; format: cell-based; conditions: K60, Ralstonia solanacearum K60 (bacterial wilt)
[13] = Staphylococcus aureus, MRSA / USA300

For CSC1=C(C)C(=O)C(=O)NC1=O [RejuAgro A], the “inhibition of growth of Ea” value (Ea) was “almost abolish the growth”, the MIC [1] was 100 mg/L (≈ 540 µM) and the “solubility in methanol and chloroform” value (Solubility in solvents) was “can be dissolved”. The “growth of L. crescens” value ([2]; 1 mg/L) was “partial inhibition of growth”, the “growth of L. crescens” value ([2]; 2.5 mg/L, for 16 days) was “inhibition of growth” and the “growth of L. crescens BT1” value ([2]; BM7 medium at 28° C., 10 mg/L, 20 mg/L, and 40 mg/L) was “inhibition of growth”. For the same compound, the MIC ([2]; Liberibacter crescens, BT1, read-out: minimal inhibitory concentration (MIC)) was 2.5 mg/L (≈ 13.5 µM), the MIC (Septoria tritici) was 100 mg/L (≈ 540 µM) and the “growth of M. fijiensis on PDA agar” value ([3]; 60 μg/mL) was “growth”. For the same compound, the “growth of M. fijiensis on PDA agar” value ([3]; 600 μg/mL, two weeks post-inoculation) was “complete inhibition; also recorded: inhibitory growth”, the MIC ([3]; Pseudocercospora fijiensis, 10CR25, Mycosphaerella fijiensis 10CR-25 (black sigatoka of Banana)) was 600 mg/L (≈ 3240 µM) and the MIC [4] was 40 mg/L (≈ 216 µM). For the same compound, the zone of inhibition at 5.5 µg/mL [5] was 2.7 ± 0.6 mm, the zone of inhibition at 11.1 µg/mL [5] was 5 ± 1 mm and the zone of inhibition at 22.1 µg/mL [5] was 7.3 ± 1.5 mm. It also gave a zone of inhibition at 33.2 µg/mL [5] of 8.3 ± 1.5 mm, a zone of inhibition at 55.4 µg/mL [5] of 9.3 ± 0.6 mm and a zone of inhibition at 110.7 µg/mL [5] of 13.3 ± 1.2 mm. For the same compound, the “growth of V. inaequalis on PDA plates” value (Venturia inaequalis; 40-80 μg/mL in PDA plate, day 14 (figure)) was “can inhibit the growth; also recorded: cannot grow”, the inhibition at 80 µg/mL (Venturia inaequalis; Venturia inaequalis) was 100% and the MIC (Venturia inaequalis; Venturia inaequalis (Apple scab)) was 80 mg/L (≈ 432 µM). For the same compound, the MIC ([6]; MRSA USA300 (Skin infection, sepsis)) was greater than 40 mg/L, the MIC [6, 13] was greater than 40 mg/L and the inhibition at 40 µg/mL (P. infestans) was 100%. For the same compound, the MIC [7] was 20 to 40 mg/L (≈ 108 to 216 µM), the “present and stable in the culture” value [8] was “at least 4 weeks” and the MIC (Colletotrichum dematium) was 50 mg/L (≈ 270 µM). It also gave a zone of inhibition at 2000 µg/mL [9] of 5 mm, an MIC [10] of 40 mg/L (≈ 216 µM) and a zone of inhibition at 5.5 µg/mL [11] of 0 mm. It also gave a zone of inhibition at 11.1 µg/mL [11] of 0 mm, a zone of inhibition at 22.1 µg/mL [11] of 0 mm and a zone of inhibition at 33.2 µg/mL [11] of 0 mm. The zone of inhibition at 55.4 µg/mL [11] was 2.3 ± 0.6 mm, the zone of inhibition at 110.7 µg/mL [11] was 2.7 ± 1.2 mm and the “inhibition of growth of Xac” value (Xac) was “almost abolish the growth”. The “inhibition of growth of strain 0617-T307” value (strain 0617-T307) was “not able to inhibit the growth” and the MIC (Magnaporthe oryzae) was 75 mg/L (≈ 405 µM).

With [H]/N=C(/N)N[C@H]1[C@H](O)[C@@H](O)[C@H](O[C@@H]2O[C@@H](C)[C@](O)(C=O)[C@H]2O[C@@H]2O[C@@H](CO)[C@H](O)[C@@H](O)[C@@H]2NC)[C@@H](N/C(N)=N\[H])[C@@H]1O [Streptomycin, reference compound] the “percentage of diseased flower clusters” value (E. amylovora Ea110) was 13.3%, the MIC [6, 13] was 10 mg/L (≈ 17.2 µM) and the zone of inhibition at 100 µg/mL [9] was 13 mm. For the same compound, the MIC [12] was 12.5 mg/L (≈ 21.5 µM).
